Where a SMILES comes first, the peptide text is derived from it. Bridges are numbered along the chain shown (N, C = ends). [ ]: non-standard residue; d: D form. The star is where a group is joined. BODIPYFLEthylmaleimide = Cc1cc(C)n2c1C=C1C=CC(CCC(=O)NCCN3C(=O)CC(*)C3=O)=[N+]1[B-]2(F)F; S5 = C=CCCC[C@](C)(N)C(=O)O
Tests used:
[1] = test system: 70Z3-C3 cells; test: Cellular uptake of BODIPY-labeled peptides by FACS; assay type: cell-based; details: 10 μM labeled peptide, 2 h, 37° C.
Method: 2.2×10^5 cells in 100 μl of 70Z3-C3 were incubated with either 10 μM or with various doses of 10 μM, 5 μM and 1 μM of labeled-peptides at 37° C., 5% CO2. Similarly to fluorescence microscopy experiments, cells alone or incubated with BODIPY®-labeled BSA (ref) or BODIPY®-UBI devoid of the antennapedia cell penetrating sequence were used as negative control, whereas cells with BA-UBI [1] at 10 μM were used as positive control. After 2 h incubation, cells were washed 4 times with PBS at room temperature, and finally diluted 1:3 in PBS before subjected to FACS analysis. Along with the BODIPY® fluorophore the fluorescence intensity was recorded at 525±25 nm using the Gallios Flow cytometer (Beckman Coulter) to analyse each cells sample. Each internalization peptide was assessed by gating a population of 15,000 events and the data were analysed using Kaluza software version 1.2.
For determination of cellular uptake by flow cytometry, the BA-UBI-SAHND306-Q313 stapled peptide was first incubated with 2.2×10^5 70Z3-C3 cells in […] either at 4° C. or 37° C. for 2 h. Bodipy-labeled BSA, bodipy alone and bodipy-UBI were used as negative controls to verify the washing quality and efficient removal of any non-specific binding at the cell surface before FACS analysis. […] After 2 h of incubation, cells were washed four times with PBS at room temperature and diluted at 1:3 in PBS for FACS analysis. Samples were analyzed as previously described in the European patent (No: 15307137.8).

[2] = Temperature-induced denaturation followed by CD; assay type: physicochemical; details: 30 μM or 300 μM, ΔCp ≈ 0; for Tm: thermal denaturation by CD; for ΔH: van't Hoff enthalpy change at Tm
[3] = molecular target: NF-κB pathway (Mus musculus, UniProt O88522); test: NF-κB inhibition assay, LPS-stimulated 70Z3-C3 lacZ reporter cells; assay type: cell-based; details: 70Z3-C3 cells, 2 h peptide then LPS 4 h; N.I = No inhibition observed
Chain of NF-κB pathway (O88522 whole entry): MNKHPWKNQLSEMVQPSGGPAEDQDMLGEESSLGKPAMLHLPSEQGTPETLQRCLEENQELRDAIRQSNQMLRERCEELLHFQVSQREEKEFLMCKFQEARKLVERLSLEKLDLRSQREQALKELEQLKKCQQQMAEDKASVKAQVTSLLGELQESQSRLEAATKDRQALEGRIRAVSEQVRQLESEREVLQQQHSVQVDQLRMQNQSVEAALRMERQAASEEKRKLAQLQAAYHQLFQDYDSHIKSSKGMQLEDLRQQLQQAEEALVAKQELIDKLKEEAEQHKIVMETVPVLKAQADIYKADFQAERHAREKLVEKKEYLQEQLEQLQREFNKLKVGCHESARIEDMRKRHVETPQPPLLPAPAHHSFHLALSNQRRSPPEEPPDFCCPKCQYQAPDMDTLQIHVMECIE
From the text: The stable cell line of pre-B lymphocyte 70Z3-C3 cells expressing the lacZ reporter gene under the control of NF-κB was previously described. OCI-Ly3 (ABC-DLBCL, MALT1 dependent) and OCI-Ly7 (GCB-DLBCL). U2932 (ABC-DLBCL, MALT1 independent) were purchased from DSMZ (Deutsche Sammlung von Mikroorganismen and Zellkulturen) and HLY1 (ABC-DLBCL, MALT1 independent). Jurkat T-cells were obtained after transduction of lentiviruses containing a NF-κB reporter luciferase gene as previously described. All cell lines were grown in RPMI 1640 medium supplemented with 10% FBS, 10 μg/ml of streptomycin, 10 U/ml of penicillin and kept at 37° C., in a 5% CO2 humidified incubator. 0.05 mM of β-mercaptoethanol was added for 70Z3-C3. Primary and secondary antibodies were as following: polyclonal rabbit anti NF-κB p65, (sc-372, Santa Cruz Biotechnology, Inc) Alexa-488 coupled goat anti-rabbit IgG1 (Invitrogen) NF-κB inhibition assay was almost similar to those previously described in [1], except that luminescence data were monitored with a Centro XS^3, LB960 luminometer (Berthold technologies.), which is more sensitive. All experiments were performed in duplicates in 96-well plates. […] After 4 h incubation, cells were centrifuged 7 min at 400×g, at 4° C.

[4] = CD spectroscopy, α-helical content; assay type: physicochemical; details: 50 μM peptide, phosphate buffer pH 7.0, UBI in TFE taken as 100%
[5] = molecular target: CC2-LZ domain of NEMO (Mus musculus, UniProt O88522); test: Fluorescence anisotropy/polarization binding assay; details: for Binding affinity (FP) at 10 μM: fixed peptide concentration 10 μM
Chain of CC2-LZ domain of NEMO (O88522 242-343 limits assumed): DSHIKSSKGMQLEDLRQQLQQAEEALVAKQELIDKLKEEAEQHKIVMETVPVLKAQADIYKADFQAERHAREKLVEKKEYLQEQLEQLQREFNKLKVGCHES

| ΔS [2] [cal. mol^−1.K^−1] | Tm [2] [C°] | ΔH [2] [cal/mol] | IC 50 NF-κB inhibition [3] | α-helical content at 1° C. [4] [%] | Binding affinity (FP) at 10 μM [5] | Kd ([5]; fixed peptide concentration 0.1 μM, read-out: Binding affinity (FP) at 0.1 μM) [µM] | Compound | FACS peak median, first or only peak [1] | FACS peak median, second peak [1] |
| --- | --- | --- | --- | --- | --- | --- | --- | --- | --- |
| −20 | 20 ± 0.3 | -5790 | N.I* | 65 | Not detectable |  | CC[C@H](C)[C@@H]1NC(=O)[C@@](C)(NC(=O)[C@H](C)NC(=O)[C@H](CCC(N)=O)NC(=O)[C@H](C)NC(=O)[C@H](CCCCN)NC(=O)[C@H](CC(C)C)NC(=O)[C@H](CSC2CC(=O)N(CCNC(=O)CCC3=[N+]4C(=Cc5c(C)cc(C)n5[B-]4(F)F)C=C3)C2=O)NC(C)=O)CCCC=CCCC[C@@](C)(C(=O)N[C@@H](CCCNC(=N)N)C(=O)N[C@@H](Cc2ccccc2)C(=O)N[C@@H](CCC(N)=O)C(=O)N[C@@H](C)C(=O)N[C@@H](CCC(=O)O)C(=O)N[C@@H](CCCNC(=N)N)C(=O)N[C@@H](Cc2c[nH]cn2)C(=O)N[C@@H](C)C(=O)N[C@@H](CCCNC(=N)N)C(=O)N[C@@H](CCC(=O)O)C(=O)N[C@@H](CCCCN)C(N)=O)NC(=O)[C@H](CCCCN)NC(=O)[C@H](Cc2ccc(O)cc2)NC1=O (stereo partly shown) [UBI-SAHN D306-A310] (Ac-C(BODIPYFLEthylmaleimide)LKAQA[S5]IYK[S5]RFQAERHAREK-NH2; staple 7-11) | 1 | 35 |
| −24 | 19 ± 0.3 | -6900 | N.I* | 70 | Very weak | ~360 | CC(=O)N[C@@H](CSC1CC(=O)N(CCNC(=O)CCC2=[N+]3C(=Cc4c(C)cc(C)n4[B-]3(F)F)C=C2)C1=O)C(=O)N[C@@H](CC(C)C)C(=O)N[C@@H](CCCCN)C(=O)N[C@@]1(C)CCCC=CCCC[C@@](C)(C(=O)N[C@@H](Cc2ccc(O)cc2)C(=O)N[C@@H](CCCCN)C(=O)N[C@@H](C)C(=O)N[C@@H](CCCNC(=N)N)C(=O)N[C@@H](Cc2ccccc2)C(=O)N[C@@H](CCC(N)=O)C(=O)N[C@@H](C)C(=O)N[C@@H](CCC(=O)O)C(=O)N[C@@H](CCCNC(=N)N)C(=O)N[C@@H](Cc2c[nH]cn2)C(=O)N[C@@H](C)C(=O)N[C@@H](CCCNC(=N)N)C(=O)N[C@@H](CCC(=O)O)C(=O)N[C@@H](CCCCN)C(N)=O)NC(=O)[C@H](CC(=O)O)NC(=O)[C@H](C)NC(=O)[C@H](CCC(N)=O)NC1=O (stereo partly shown) [UBI-SAHN A303-I307] (Ac-C(BODIPYFLEthylmaleimide)LK[S5]QAD[S5]YKARFQAERHAREK-NH2; staple 4-8) | 10 |  |

Source: patent publication US11884708B2, “Stapled peptide inhibitors of nemo as potential anti-inflammatory and anti-cancer drugs” (INSTITUT PASTEUR, priority 2015, dated 2024)
